Data from patent US8598365B2, “Herbicides” (Syngenta Limited, priority 2007, dated 2013).

How the values were obtained:
Assay type in all cases: in vivo
[1] = test system: Digitaria sanguinalis (DIGSA); test: Example A pre-emergence herbicidal activity; details: rate 250 g/ha, evaluated 19 or 20 days later
Experimental: (§1) Seeds of a variety of test species were sown in standard soil in pots. After cultivation for one day (pre-emergence) or after 10 days cultivation (post-emergence) under controlled conditions in a glasshouse, the plants were sprayed with an aqueous spray solution derived from the formulation of the technical active ingredient in 0.6 ml acetone and 45 ml formulation solution containing 10.6% Emulsogen EL (Registry number 61791-12-6), 42.2% N-methylpyrrolidone, 42.2% dipropylene glycol monomethyl ether (Registry number 34590-94-8) and 0.2% X-77 (Registry number 11097-66-8). The test plants were then grown in a greenhouse under optimum conditions until, 14 or 15 days later for post-emergence and 19 or 20 days for pre-emergence, the test was evaluated (100=total damage to plant; 0=no damage to plant). Alopecurus myosuroides (ALOMY), Avena fatua (AVEFA), Lolium perenne (LOLPE), Setaria faberi (SETFA), Digitaria sanguinalis (DIGSA), Echinochloa crus-galli (ECHCG)

[2] = test system: Avena fatua (AVEFA); test: Example A pre-emergence herbicidal activity; details: rate 250 g/ha, evaluated 19 or 20 days later
Experimental: as §1

[3] = test system: Setaria faberi (SETFA); test: Example A pre-emergence herbicidal activity; details: rate 250 g/ha, evaluated 19 or 20 days later
Experimental: as §1

[4] = test system: Echinochloa crus-galli (ECHCG); test: Example A pre-emergence herbicidal activity; details: rate 250 g/ha, evaluated 19 or 20 days later
Experimental: as §1

[5] = test system: Alopecurus myosuroides (ALOMY); test: Example A pre-emergence herbicidal activity; details: rate 250 g/ha, evaluated 19 or 20 days later
Experimental: as §1

[6] = test system: Lolium perenne (LOLPE); test: Example A pre-emergence herbicidal activity; details: rate 250 g/ha, evaluated 19 or 20 days later
Experimental: as §1

[7] = test system: Digitaria sanguinalis (DIGSA); test: Example A post-emergence herbicidal activity; details: rate 125 g/ha, evaluated 14 or 15 days later
Experimental: as §1

[8] = test system: Avena fatua (AVEFA); test: Example A post-emergence herbicidal activity; details: rate 125 g/ha, evaluated 14 or 15 days later
Experimental: as §1

[9] = test system: Setaria faberi (SETFA); test: Example A post-emergence herbicidal activity; details: rate 125 g/ha, evaluated 14 or 15 days later
Experimental: as §1

[10] = test system: Echinochloa crus-galli (ECHCG); test: Example A post-emergence herbicidal activity; details: rate 125 g/ha, evaluated 14 or 15 days later
Experimental: as §1

[11] = test system: Alopecurus myosuroides (ALOMY); test: Example A post-emergence herbicidal activity; details: rate 125 g/ha, evaluated 14 or 15 days later
Experimental: as §1

[12] = test system: Lolium perenne (LOLPE); test: Example A post-emergence herbicidal activity; details: rate 125 g/ha, evaluated 14 or 15 days later
Experimental: as §1

Compound: Cc1[se]c(-c2ccc(Cl)cc2)nc1C1C(=O)[C@@H]2CC[C@@H](C2)C1=O (some centres unmarked) [Compound T1, 3-[2-(4-chlorophenyl)-5-methylselenazol-4-yl]bicyclo[3.2.1]octane-2,4-dione]
- Pre-Emergence Activity DIGSA (100=total damage to plant; 0=no damage to plant) [1]: 60
- Pre-Emergence Activity AVEFA (100=total damage to plant; 0=no damage to plant) [2]: 20
- Pre-Emergence Activity SETFA (100=total damage to plant; 0=no damage to plant) [3]: 70
- Pre-Emergence Activity ECHCG (100=total damage to plant; 0=no damage to plant) [4]: 60
- Pre-Emergence Activity ALOMY (100=total damage to plant; 0=no damage to plant) [5]: 60
- Pre-Emergence Activity LOLPE (100=total damage to plant; 0=no damage to plant) [6]: 80
- Post-Emergence Activity DIGSA (100=total damage to plant; 0=no damage to plant) [7]: 80
- Post-Emergence Activity AVEFA (100=total damage to plant; 0=no damage to plant) [8]: 70
- Post-Emergence Activity SETFA (100=total damage to plant; 0=no damage to plant) [9]: 90
- Post-Emergence Activity ECHCG (100=total damage to plant; 0=no damage to plant) [10]: 100
- Post-Emergence Activity ALOMY (100=total damage to plant; 0=no damage to plant) [11]: 70
- Post-Emergence Activity LOLPE (100=total damage to plant; 0=no damage to plant) [12]: 30

Compound: Cc1sc(-c2ccc(Br)cc2)nc1C1C(=O)[C@@H]2CC[C@@H](C2)C1=O (some centres unmarked) [Compound T15]
- Pre-Emergence Activity DIGSA (100=total damage to plant; 0=no damage to plant) [1]: 100
- Pre-Emergence Activity SETFA (100=total damage to plant; 0=no damage to plant) [3]: 100
- Pre-Emergence Activity ECHCG (100=total damage to plant; 0=no damage to plant) [4]: 100
- Pre-Emergence Activity ALOMY (100=total damage to plant; 0=no damage to plant) [5]: 90
- Pre-Emergence Activity LOLPE (100=total damage to plant; 0=no damage to plant) [6]: 100
- Post-Emergence Activity DIGSA (100=total damage to plant; 0=no damage to plant) [7]: 100
- Post-Emergence Activity AVEFA (100=total damage to plant; 0=no damage to plant) [8]: 90
- Post-Emergence Activity SETFA (100=total damage to plant; 0=no damage to plant) [9]: 100
- Post-Emergence Activity ECHCG (100=total damage to plant; 0=no damage to plant) [10]: 70
- Post-Emergence Activity ALOMY (100=total damage to plant; 0=no damage to plant) [11]: 90
- Post-Emergence Activity LOLPE (100=total damage to plant; 0=no damage to plant) [12]: 50

Compound: Cc1sc(-c2ccc(Cl)nc2)nc1C1C(=O)[C@@H]2CC[C@@H](C2)C1=O (some centres unmarked) [Compound T16]
- Pre-Emergence Activity DIGSA (100=total damage to plant; 0=no damage to plant) [1]: 80
- Pre-Emergence Activity AVEFA (100=total damage to plant; 0=no damage to plant) [2]: 20
- Pre-Emergence Activity SETFA (100=total damage to plant; 0=no damage to plant) [3]: 80
- Pre-Emergence Activity ECHCG (100=total damage to plant; 0=no damage to plant) [4]: 70
- Pre-Emergence Activity ALOMY (100=total damage to plant; 0=no damage to plant) [5]: 10
- Pre-Emergence Activity LOLPE (100=total damage to plant; 0=no damage to plant) [6]: 20
- Post-Emergence Activity DIGSA (100=total damage to plant; 0=no damage to plant) [7]: 70
- Post-Emergence Activity AVEFA (100=total damage to plant; 0=no damage to plant) [8]: 40
- Post-Emergence Activity SETFA (100=total damage to plant; 0=no damage to plant) [9]: 60
- Post-Emergence Activity ECHCG (100=total damage to plant; 0=no damage to plant) [10]: 50
- Post-Emergence Activity ALOMY (100=total damage to plant; 0=no damage to plant) [11]: 20
- Post-Emergence Activity LOLPE (100=total damage to plant; 0=no damage to plant) [12]: 20

Compound: Cc1sc(-c2ccc(Cl)cc2)nc1C1C(=O)[C@@H]2CC[C@@H](C2)C1=O (some centres unmarked) [Compound T17]
- Pre-Emergence Activity DIGSA (100=total damage to plant; 0=no damage to plant) [1]: 100
- Pre-Emergence Activity AVEFA (100=total damage to plant; 0=no damage to plant) [2]: 100
- Pre-Emergence Activity SETFA (100=total damage to plant; 0=no damage to plant) [3]: 100
- Pre-Emergence Activity ECHCG (100=total damage to plant; 0=no damage to plant) [4]: 100
- Pre-Emergence Activity ALOMY (100=total damage to plant; 0=no damage to plant) [5]: 100
- Pre-Emergence Activity LOLPE (100=total damage to plant; 0=no damage to plant) [6]: 100
- Post-Emergence Activity DIGSA (100=total damage to plant; 0=no damage to plant) [7]: 80
- Post-Emergence Activity AVEFA (100=total damage to plant; 0=no damage to plant) [8]: 50
- Post-Emergence Activity SETFA (100=total damage to plant; 0=no damage to plant) [9]: 80
- Post-Emergence Activity ECHCG (100=total damage to plant; 0=no damage to plant) [10]: 90
- Post-Emergence Activity ALOMY (100=total damage to plant; 0=no damage to plant) [11]: 70
- Post-Emergence Activity LOLPE (100=total damage to plant; 0=no damage to plant) [12]: 40

Compound: COc1ccc(-c2nc(C3C(=O)[C@@H]4CC[C@@H](C4)C3=O)c(C)s2)cn1 (some centres unmarked) [Compound T18]
- Pre-Emergence Activity DIGSA (100=total damage to plant; 0=no damage to plant) [1]: 30
- Pre-Emergence Activity AVEFA (100=total damage to plant; 0=no damage to plant) [2]: 0
- Pre-Emergence Activity SETFA (100=total damage to plant; 0=no damage to plant) [3]: 20
- Pre-Emergence Activity ECHCG (100=total damage to plant; 0=no damage to plant) [4]: 20
- Pre-Emergence Activity ALOMY (100=total damage to plant; 0=no damage to plant) [5]: 0
- Pre-Emergence Activity LOLPE (100=total damage to plant; 0=no damage to plant) [6]: 0
- Post-Emergence Activity DIGSA (100=total damage to plant; 0=no damage to plant) [7]: 60
- Post-Emergence Activity AVEFA (100=total damage to plant; 0=no damage to plant) [8]: 30
- Post-Emergence Activity SETFA (100=total damage to plant; 0=no damage to plant) [9]: 60
- Post-Emergence Activity ECHCG (100=total damage to plant; 0=no damage to plant) [10]: 50
- Post-Emergence Activity ALOMY (100=total damage to plant; 0=no damage to plant) [11]: 40
- Post-Emergence Activity LOLPE (100=total damage to plant; 0=no damage to plant) [12]: 20

Compound: CCc1sc(-c2ccc(Cl)cc2)nc1C1C(=O)[C@@H]2CC[C@@H](C2)C1=O (some centres unmarked) [Compound T19, 3-[2-(4-chlorophenyl)-5-ethylthiazol-4-yl]bicyclo[3.2.1]octane-2,4-dione]
- Pre-Emergence Activity DIGSA (100=total damage to plant; 0=no damage to plant) [1]: 100
- Pre-Emergence Activity AVEFA (100=total damage to plant; 0=no damage to plant) [2]: 100
- Pre-Emergence Activity SETFA (100=total damage to plant; 0=no damage to plant) [3]: 100
- Pre-Emergence Activity ECHCG (100=total damage to plant; 0=no damage to plant) [4]: 100
- Pre-Emergence Activity ALOMY (100=total damage to plant; 0=no damage to plant) [5]: 100
- Pre-Emergence Activity LOLPE (100=total damage to plant; 0=no damage to plant) [6]: 100
- Post-Emergence Activity DIGSA (100=total damage to plant; 0=no damage to plant) [7]: 100
- Post-Emergence Activity AVEFA (100=total damage to plant; 0=no damage to plant) [8]: 100
- Post-Emergence Activity SETFA (100=total damage to plant; 0=no damage to plant) [9]: 100
- Post-Emergence Activity ECHCG (100=total damage to plant; 0=no damage to plant) [10]: 100
- Post-Emergence Activity ALOMY (100=total damage to plant; 0=no damage to plant) [11]: 100
- Post-Emergence Activity LOLPE (100=total damage to plant; 0=no damage to plant) [12]: 80

Compound: Cc1sc(-c2ccc(Cl)cc2)cc1C1C(=O)[C@@H]2CC[C@@H](C2)C1=O (some centres unmarked) [Compound T23]
- Pre-Emergence Activity DIGSA (100=total damage to plant; 0=no damage to plant) [1]: 0
- Pre-Emergence Activity AVEFA (100=total damage to plant; 0=no damage to plant) [2]: 50
- Pre-Emergence Activity SETFA (100=total damage to plant; 0=no damage to plant) [3]: 0
- Pre-Emergence Activity ECHCG (100=total damage to plant; 0=no damage to plant) [4]: 0
- Pre-Emergence Activity ALOMY (100=total damage to plant; 0=no damage to plant) [5]: 30
- Pre-Emergence Activity LOLPE (100=total damage to plant; 0=no damage to plant) [6]: 0
- Post-Emergence Activity DIGSA (100=total damage to plant; 0=no damage to plant) [7]: 90
- Post-Emergence Activity AVEFA (100=total damage to plant; 0=no damage to plant) [8]: 70
- Post-Emergence Activity SETFA (100=total damage to plant; 0=no damage to plant) [9]: 100
- Post-Emergence Activity ECHCG (100=total damage to plant; 0=no damage to plant) [10]: 90
- Post-Emergence Activity ALOMY (100=total damage to plant; 0=no damage to plant) [11]: 80
- Post-Emergence Activity LOLPE (100=total damage to plant; 0=no damage to plant) [12]: 70
